In ChEMBL document CHEMBL5291721, “A preclinical secondary pharmacology resource illuminates target-adverse drug reaction associations of marketed drugs” (Nat Commun, 2023):

Experiments:
B2 bradykinin receptor = biological target: T1, B2 bradykinin receptor (Homo sapiens, UniProt P30411)
T1 sequence (P30411 whole entry): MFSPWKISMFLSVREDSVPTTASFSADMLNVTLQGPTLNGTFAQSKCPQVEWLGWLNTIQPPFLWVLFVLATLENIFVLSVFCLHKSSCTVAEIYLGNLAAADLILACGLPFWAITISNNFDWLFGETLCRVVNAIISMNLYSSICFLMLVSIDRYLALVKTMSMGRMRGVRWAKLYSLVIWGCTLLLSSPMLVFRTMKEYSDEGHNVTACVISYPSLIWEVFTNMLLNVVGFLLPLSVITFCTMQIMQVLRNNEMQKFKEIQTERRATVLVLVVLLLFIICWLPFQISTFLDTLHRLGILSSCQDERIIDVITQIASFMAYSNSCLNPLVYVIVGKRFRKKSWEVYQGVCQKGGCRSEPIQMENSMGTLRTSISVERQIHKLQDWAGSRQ

[1] = biological target: T2, Gamma-aminobutyric acid receptor subunit alpha-1 (Rattus norvegicus, UniProt P62813)
D(3) dopamine receptor = D(3) dopamine receptor (Homo sapiens, UniProt P35462)
Vasopressin V2 receptor = Vasopressin V2 receptor (Homo sapiens, UniProt P30518)
[2] = biological target: T3, Muscarinic acetylcholine receptor M2 (Homo sapiens, UniProt P08172)
T3 sequence (P08172 whole entry): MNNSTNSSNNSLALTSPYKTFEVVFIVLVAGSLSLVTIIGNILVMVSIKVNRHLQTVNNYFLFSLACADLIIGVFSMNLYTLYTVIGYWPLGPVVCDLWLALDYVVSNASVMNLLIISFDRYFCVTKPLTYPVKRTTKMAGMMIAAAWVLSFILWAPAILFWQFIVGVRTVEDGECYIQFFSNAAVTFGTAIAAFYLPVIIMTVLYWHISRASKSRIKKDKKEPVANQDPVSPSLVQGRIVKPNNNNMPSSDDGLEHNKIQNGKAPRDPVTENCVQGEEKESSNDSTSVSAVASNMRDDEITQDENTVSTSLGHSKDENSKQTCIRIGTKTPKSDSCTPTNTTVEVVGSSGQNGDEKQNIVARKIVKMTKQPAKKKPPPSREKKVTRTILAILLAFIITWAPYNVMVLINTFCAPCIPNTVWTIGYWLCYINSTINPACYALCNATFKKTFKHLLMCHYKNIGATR

[3] = biological target: Beta-1 adrenergic receptor (Homo sapiens, UniProt P08588); format: functional
Thromboxane A2 receptor = biological target: T4, Thromboxane A2 receptor (Homo sapiens, UniProt P21731); format: functional, cell-based
T4 sequence (P21731 whole entry): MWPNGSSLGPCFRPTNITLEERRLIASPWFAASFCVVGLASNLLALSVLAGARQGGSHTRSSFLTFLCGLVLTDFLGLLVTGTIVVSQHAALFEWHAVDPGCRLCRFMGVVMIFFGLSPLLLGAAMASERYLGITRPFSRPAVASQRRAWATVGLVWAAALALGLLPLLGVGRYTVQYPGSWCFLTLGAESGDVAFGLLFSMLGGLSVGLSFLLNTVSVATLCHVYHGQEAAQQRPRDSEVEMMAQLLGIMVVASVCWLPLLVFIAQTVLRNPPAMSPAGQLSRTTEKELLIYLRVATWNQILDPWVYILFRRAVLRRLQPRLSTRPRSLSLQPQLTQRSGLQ

[4] = biological target: Sodium-dependent dopamine transporter (Homo sapiens, UniProt Q01959)
[5] = biological target: T2, Gamma-aminobutyric acid receptor subunit alpha-1; format: functional
[6] = biological target: 5-hydroxytryptamine receptor 2B (Homo sapiens, UniProt P41595); format: functional, cell-based
Mu-type opioid receptor = Mu-type opioid receptor (Homo sapiens, UniProt P35372)
Progesterone receptor = biological target: T5, Progesterone receptor (Homo sapiens, UniProt P06401)
T5 sequence (P06401 whole entry): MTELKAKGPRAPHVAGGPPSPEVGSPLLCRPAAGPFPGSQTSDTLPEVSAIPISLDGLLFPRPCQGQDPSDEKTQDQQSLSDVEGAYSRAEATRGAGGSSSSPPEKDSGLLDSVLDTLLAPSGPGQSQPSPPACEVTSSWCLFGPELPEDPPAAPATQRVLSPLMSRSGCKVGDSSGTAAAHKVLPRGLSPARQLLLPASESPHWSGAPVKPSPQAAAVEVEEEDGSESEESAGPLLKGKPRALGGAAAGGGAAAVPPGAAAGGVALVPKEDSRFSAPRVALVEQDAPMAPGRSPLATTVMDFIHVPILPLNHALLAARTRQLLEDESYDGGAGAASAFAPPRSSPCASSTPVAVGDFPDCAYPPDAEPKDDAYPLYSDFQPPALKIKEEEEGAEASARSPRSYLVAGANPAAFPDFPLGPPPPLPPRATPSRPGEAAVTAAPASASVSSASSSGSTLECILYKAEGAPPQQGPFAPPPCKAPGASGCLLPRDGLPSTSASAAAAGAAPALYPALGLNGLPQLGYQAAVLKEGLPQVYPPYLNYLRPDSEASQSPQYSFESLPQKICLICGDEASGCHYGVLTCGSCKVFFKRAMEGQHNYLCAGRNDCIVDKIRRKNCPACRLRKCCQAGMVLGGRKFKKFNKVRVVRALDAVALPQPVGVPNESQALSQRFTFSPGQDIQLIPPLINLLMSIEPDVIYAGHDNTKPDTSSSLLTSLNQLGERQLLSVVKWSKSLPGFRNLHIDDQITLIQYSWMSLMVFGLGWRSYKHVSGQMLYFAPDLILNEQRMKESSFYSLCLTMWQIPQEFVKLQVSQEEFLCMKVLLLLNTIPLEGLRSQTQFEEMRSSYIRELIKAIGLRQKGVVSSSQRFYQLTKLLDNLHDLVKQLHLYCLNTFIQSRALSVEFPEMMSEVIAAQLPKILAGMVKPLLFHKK

[7] = biological target: 3',5'-cyclic-AMP phosphodiesterase 4D (Homo sapiens, UniProt Q08499); format: functional
Histamine H3 receptor = Histamine H3 receptor (Homo sapiens, UniProt Q9Y5N1)
Bile salt export pump = Bile salt export pump (Homo sapiens, UniProt O95342); format: functional
[8] = biological target: Sodium-dependent serotonin transporter (Homo sapiens, UniProt P31645)
Also: assay procedure not described here.

3',5'-cyclic-AMP phosphodiesterase 4D, sequence (Q08499 whole entry): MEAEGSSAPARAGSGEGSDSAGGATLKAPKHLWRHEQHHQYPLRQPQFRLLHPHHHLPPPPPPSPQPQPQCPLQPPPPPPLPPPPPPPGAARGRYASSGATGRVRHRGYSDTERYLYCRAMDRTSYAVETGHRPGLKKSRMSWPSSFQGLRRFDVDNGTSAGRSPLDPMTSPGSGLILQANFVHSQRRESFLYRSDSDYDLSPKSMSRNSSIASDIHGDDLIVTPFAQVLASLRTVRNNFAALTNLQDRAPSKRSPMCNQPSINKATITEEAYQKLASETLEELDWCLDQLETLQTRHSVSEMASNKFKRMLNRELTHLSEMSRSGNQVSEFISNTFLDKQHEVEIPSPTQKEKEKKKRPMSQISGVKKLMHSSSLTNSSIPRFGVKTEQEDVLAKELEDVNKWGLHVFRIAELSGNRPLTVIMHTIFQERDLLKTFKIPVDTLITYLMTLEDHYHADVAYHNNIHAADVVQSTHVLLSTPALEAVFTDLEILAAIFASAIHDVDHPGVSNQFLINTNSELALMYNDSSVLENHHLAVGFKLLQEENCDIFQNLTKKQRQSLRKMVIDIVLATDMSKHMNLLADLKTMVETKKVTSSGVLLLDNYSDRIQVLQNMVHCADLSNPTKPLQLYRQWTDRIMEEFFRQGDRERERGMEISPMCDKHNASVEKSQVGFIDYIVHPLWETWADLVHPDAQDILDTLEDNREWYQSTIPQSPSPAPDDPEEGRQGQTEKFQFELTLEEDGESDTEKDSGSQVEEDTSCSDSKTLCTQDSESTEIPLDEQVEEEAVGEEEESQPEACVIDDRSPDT
Sodium-dependent serotonin transporter, sequence (P31645 whole entry): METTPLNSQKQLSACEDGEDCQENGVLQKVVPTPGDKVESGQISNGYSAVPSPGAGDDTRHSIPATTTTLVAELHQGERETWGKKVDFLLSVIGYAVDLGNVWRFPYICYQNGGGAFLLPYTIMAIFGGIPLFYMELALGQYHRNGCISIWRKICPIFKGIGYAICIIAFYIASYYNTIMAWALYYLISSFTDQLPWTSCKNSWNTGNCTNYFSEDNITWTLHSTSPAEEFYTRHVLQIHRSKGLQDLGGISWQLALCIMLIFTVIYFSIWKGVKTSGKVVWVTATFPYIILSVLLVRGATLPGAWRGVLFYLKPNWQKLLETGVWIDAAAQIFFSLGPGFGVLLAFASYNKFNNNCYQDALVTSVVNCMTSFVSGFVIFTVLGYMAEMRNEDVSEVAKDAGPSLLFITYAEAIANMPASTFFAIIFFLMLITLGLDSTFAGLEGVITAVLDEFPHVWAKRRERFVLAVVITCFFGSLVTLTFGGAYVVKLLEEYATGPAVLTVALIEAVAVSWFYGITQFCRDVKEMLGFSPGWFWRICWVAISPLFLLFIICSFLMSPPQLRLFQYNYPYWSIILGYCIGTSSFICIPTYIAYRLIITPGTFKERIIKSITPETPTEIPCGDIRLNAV
Vasopressin V2 receptor, sequence (P30518 whole entry): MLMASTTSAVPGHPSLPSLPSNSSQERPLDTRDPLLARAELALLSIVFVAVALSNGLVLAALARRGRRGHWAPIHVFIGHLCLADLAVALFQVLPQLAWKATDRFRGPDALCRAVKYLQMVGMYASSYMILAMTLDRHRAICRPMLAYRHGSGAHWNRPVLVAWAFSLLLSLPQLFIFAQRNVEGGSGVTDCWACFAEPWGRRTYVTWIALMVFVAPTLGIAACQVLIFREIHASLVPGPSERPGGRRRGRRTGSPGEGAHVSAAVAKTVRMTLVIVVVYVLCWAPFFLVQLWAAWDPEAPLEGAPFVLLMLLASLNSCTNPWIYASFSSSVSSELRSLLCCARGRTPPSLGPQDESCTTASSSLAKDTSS
Sodium-dependent dopamine transporter, sequence (Q01959 whole entry): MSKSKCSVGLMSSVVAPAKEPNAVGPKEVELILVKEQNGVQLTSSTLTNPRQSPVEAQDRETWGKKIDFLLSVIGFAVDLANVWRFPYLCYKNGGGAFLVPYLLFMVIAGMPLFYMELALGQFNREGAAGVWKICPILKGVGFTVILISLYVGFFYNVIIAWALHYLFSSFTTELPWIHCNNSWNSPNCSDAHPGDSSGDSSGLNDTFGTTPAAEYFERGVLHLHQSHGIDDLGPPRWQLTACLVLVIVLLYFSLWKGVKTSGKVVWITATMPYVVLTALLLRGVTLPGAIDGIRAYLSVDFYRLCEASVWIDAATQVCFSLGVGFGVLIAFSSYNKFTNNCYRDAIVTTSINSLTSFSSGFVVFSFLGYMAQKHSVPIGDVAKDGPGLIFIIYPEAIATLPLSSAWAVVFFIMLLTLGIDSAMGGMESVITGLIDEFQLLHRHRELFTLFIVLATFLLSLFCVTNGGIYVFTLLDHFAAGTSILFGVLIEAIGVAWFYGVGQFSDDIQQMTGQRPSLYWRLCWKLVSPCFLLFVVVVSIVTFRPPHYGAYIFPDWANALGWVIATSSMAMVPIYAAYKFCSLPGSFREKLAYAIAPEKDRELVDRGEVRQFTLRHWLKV
Beta-1 adrenergic receptor, sequence (P08588 whole entry): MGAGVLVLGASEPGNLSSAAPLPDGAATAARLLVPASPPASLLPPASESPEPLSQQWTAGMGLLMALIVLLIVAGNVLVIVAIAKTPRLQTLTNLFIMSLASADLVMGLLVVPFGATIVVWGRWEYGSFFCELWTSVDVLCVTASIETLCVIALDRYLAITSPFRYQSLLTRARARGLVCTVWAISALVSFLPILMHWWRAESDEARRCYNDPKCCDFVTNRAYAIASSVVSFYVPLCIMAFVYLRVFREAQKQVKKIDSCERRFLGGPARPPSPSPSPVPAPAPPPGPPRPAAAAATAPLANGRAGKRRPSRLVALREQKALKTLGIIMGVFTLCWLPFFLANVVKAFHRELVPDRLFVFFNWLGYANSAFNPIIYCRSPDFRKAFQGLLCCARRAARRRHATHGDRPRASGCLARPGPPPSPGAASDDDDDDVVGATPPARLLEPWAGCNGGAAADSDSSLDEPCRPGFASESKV
T2 sequence (P62813 whole entry): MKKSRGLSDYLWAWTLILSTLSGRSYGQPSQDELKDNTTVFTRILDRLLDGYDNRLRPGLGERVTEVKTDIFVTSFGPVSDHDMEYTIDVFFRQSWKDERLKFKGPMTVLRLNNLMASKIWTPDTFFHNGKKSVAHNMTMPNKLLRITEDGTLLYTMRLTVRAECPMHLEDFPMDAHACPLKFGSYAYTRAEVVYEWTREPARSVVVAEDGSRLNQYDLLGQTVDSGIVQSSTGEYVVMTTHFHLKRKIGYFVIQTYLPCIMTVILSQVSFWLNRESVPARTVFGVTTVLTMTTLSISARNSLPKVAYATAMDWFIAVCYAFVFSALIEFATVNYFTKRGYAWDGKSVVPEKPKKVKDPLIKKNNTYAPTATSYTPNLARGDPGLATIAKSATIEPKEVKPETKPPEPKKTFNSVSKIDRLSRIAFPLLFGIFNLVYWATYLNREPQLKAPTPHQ
Mu-type opioid receptor, sequence (P35372 whole entry): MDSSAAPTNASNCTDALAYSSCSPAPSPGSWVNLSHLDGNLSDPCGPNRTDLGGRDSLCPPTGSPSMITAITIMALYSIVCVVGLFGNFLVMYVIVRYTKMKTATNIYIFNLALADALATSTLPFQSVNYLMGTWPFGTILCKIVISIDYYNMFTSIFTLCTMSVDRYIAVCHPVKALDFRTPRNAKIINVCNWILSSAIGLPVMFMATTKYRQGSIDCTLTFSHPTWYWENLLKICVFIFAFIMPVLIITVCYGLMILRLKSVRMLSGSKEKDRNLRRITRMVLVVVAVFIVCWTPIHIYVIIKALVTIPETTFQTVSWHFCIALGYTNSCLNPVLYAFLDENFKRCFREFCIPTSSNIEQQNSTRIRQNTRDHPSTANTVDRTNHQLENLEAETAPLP
5-hydroxytryptamine receptor 2B, sequence (P41595 whole entry): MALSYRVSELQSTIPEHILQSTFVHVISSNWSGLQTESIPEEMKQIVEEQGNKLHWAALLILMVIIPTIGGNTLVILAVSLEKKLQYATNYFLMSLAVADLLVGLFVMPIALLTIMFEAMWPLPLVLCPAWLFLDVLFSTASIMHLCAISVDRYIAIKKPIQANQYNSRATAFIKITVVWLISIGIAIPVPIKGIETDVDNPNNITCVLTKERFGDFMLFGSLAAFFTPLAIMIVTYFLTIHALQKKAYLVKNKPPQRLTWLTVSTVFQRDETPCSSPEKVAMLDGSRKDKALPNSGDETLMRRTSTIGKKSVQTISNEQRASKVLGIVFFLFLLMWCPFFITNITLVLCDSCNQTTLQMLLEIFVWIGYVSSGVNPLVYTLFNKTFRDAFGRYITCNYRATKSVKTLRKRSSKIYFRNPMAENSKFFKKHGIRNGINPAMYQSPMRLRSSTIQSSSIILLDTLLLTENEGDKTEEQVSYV
D(3) dopamine receptor, sequence (P35462 whole entry): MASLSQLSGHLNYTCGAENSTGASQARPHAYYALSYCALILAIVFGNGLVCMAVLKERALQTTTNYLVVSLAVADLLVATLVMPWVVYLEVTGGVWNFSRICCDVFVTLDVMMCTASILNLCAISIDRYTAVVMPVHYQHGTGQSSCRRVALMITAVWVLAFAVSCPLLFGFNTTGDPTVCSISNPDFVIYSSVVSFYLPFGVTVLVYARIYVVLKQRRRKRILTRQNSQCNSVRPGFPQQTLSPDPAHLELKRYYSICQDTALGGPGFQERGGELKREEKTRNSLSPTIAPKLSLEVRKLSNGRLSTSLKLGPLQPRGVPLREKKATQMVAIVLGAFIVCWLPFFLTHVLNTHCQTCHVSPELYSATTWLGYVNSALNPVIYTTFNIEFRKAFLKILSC

Row | Compound | AC50 (B2 bradykinin receptor) [µM] | AC50 [1] [µM] | AC50 (D(3) dopamine receptor) [µM] | AC50 (Vasopressin V2 receptor) [µM] | AC50 [2] [µM] | AC50 [3] [µM] | AC50 (Thromboxane A2 receptor) [µM] | AC50 [4] [µM] | AC50 [5] [µM] | AC50 [6] [µM] | AC50 (Mu-type opioid receptor) [µM] | AC50 (Progesterone receptor) [µM] | AC50 [7] [µM] | AC50 (Histamine H3 receptor) [µM] | AC50 (Bile salt export pump) [µM] | AC50 [8] [µM]
1 | CCCc1nc2c(C)cc(-c3nc4ccccc4n3C)cc2n1Cc1ccc(-c2ccccc2C(=O)O)cc1 | > 30 | > 30 | > 30 | > 30 | > 30 | > 30 | 14.5 | > 30 | > 30 | > 30 | 2.56 | > 30 | 7.1 | > 30 | 5 | 
2 | CC(=O)NO [ACETOHYDROXAMIC ACID] |  | > 30 |  |  | > 30 |  | > 30 | > 30 |  |  | > 30 | > 30 |  | > 30 | > 300 | > 30
3 | C[C@H]1CN(C[C@H](Cc2ccccc2)C(=O)NCC(=O)O)CC[C@@]1(C)c1cccc(O)c1 [ALVIMOPAN] |  |  |  |  | > 30 |  | > 30 | > 30 |  |  |  | > 30 |  | > 30 | > 300 | > 30
4 | O=C(O)c1ccccc1 [BENZOIC ACID] |  | > 30 |  |  | > 30 |  | > 30 | > 30 |  |  | > 30 | > 30 |  | > 30 | 260 | 
5 | Nc1c(CC(=O)O)cccc1C(=O)c1ccc(Br)cc1 [BROMFENAC] |  | > 30 |  |  | > 30 |  | > 30 | > 30 |  |  | > 30 | > 30 |  | > 30 | 88 | 
6 | O=C(O)Cc1ccccc1Nc1c(Cl)cccc1Cl [DICLOFENAC] | > 30 |  | > 10 | > 30 | > 3 | > 10 | > 3 | > 3 | > 10 | > 10 | > 3 | > 3 | > 30 | > 3 | > 300 | 
7 | CC(C(=O)O)c1cccc(Oc2ccccc2)c1 (centres undefined) [FENOPROFEN] |  |  |  |  | > 30 |  | > 30 | > 30 |  |  | > 30 | > 30 |  | > 30 | > 300 | 
8 | Cc1ccc(C)c(OCCCC(C)(C)C(=O)O)c1 [GEMFIBROZIL] | > 30 | > 30 | > 10 | > 30 | > 30 | > 10 | > 30 | > 30 | > 10 | > 10 | > 30 | > 30 | > 30 | > 30 | > 300 | 
9 | Cc1cc(=O)oc2cc(O)ccc12 [HYMECROMONE] |  | > 30 |  |  | > 30 |  | > 30 | > 30 |  |  | > 30 | > 30 |  | > 30 | > 300 | > 30
10 | COc1cc(C(C)=O)ccc1OCCCN1CCC(c2noc3cc(F)ccc23)CC1 [ILOPERIDONE] |  | > 30 | 0.0373 |  | 2.18 | > 30 | > 10 | 5.94 | 12.9 | > 30 | 4.11 | > 30 | > 30 | > 30 | 40 | 
11 | C[N+]1(C)CCCC(OC(=O)C(O)(c2ccccc2)c2ccccc2)C1 (centres undefined) [MEPENZOLATE] |  |  |  |  |  |  | > 30 | > 30 |  |  | > 30 | > 30 |  | > 30 | > 300 | 20.4
12 | CN(C)c1ccc(O)c2c1C[C@H]1C[C@H]3[C@H](N(C)C)C(O)=C(C(N)=O)C(=O)[C@@]3(O)C(O)=C1C2=O [MINOCYCLINE] |  |  |  |  | > 10 |  | > 30 | > 30 |  |  | > 30 | > 30 |  | > 30 | 83 | > 30
13 | C=CC(=O)Nc1cccc(Oc2nc(Nc3ccc(N4CCN(C)CC4)cc3)nc3ccsc23)c1 [OLMUTINIB] |  | > 30 |  |  | 1.64 |  | > 30 | 0.0559 |  |  | 5.5 | > 30 |  | 0.94 | 13 | > 30
14 | CC(CN1c2ccccc2Sc2ccccc21)N(C)C (centres undefined) [PROMETHAZINE] | > 30 | > 30 | 0.28 | > 30 | 0.03 | > 10 | > 30 | > 30 | > 10 | > 10 |  | > 30 | > 30 | > 30 | > 300 | 
15 | C[N+](C)(C)CCOC(=O)CCC(=O)OCC[N+](C)(C)C [SUXAMETHONIUM] |  |  |  |  | > 30 |  | > 30 | > 30 |  |  | > 30 | > 30 |  | > 30 | > 300 | 
16 | Cc1ccc(C(=O)c2ccc(CC(=O)O)n2C)cc1 [TOLMETIN] |  |  |  |  | > 30 |  | > 30 | > 30 |  |  | > 30 | > 30 |  | > 30 | > 300 | 
17 | Cc1ccccc1C(=O)Nc1ccc(C(=O)N2CCCC(O)c3cc(Cl)ccc32)c(C)c1 (centres undefined) [TOLVAPTAN] |  |  |  |  | > 30 |  | > 30 | > 30 |  |  | 6.71 | > 30 |  | > 30 | 7.87 | > 30
18 | O=C1Cc2cc(CCN3CCN(c4nsc5ccccc45)CC3)c(Cl)cc2N1 [ZIPRASIDONE] | > 30 | > 30 |  | > 30 | 7.14 | > 10 | > 30 | 0.0875 | > 10 | > 30 | 5.06 | > 30 | > 30 | > 30 | 18 | 
